Measurements reported in US20090270452A1, “USE OF SOLUBLE EPOXIDE HYDROLASE INHIBITORS IN THE TREATMENT OF SMOOTH MUSCLE DISORDERS” (Arete Therapeutics, Inc., priority 2008, published 2009).

Legend:
[1] = test system: rat corpus cavernosual strips; conditions: cited from earlier work; for phenylephrine (PE) induced contraction of the cavernosual strips: preincubation with the inhibitor
rat arteries [2] = experiment: Ach-induced relaxation of isolated arteries from angiotensin II infused rats after in vitro pre-incubation (myograph); format: cell-based; conditions: arteries of ANG II infused rats, pre-incubation with 100 μM compound for 90 minutes; 2% without compound
Method: The efficacy of 1-(1-nicotinoylpiperidin-4-yl)-3-(4-(trifluoromethoxy)phenyl)urea (Compound 2) and 1-adamantyl-3-(1-acetylpiperidin-4-yl)urea (Compound 3) to effect vasorelaxation of rat arteries in vitro and in vivo was examined. Rats were infused with angiotensin II (ANG II) for 4 weeks resulting in a reduced vasorelaxation response to acetylcholine (Ach), a neurotransmitter known to cause endothelium-dependent vasodilation of arteries. Ach-induced relaxation was measured by myograph.

rat arteries [3] = experiment: Ach-induced relaxation of arteries from angiotensin II rats co-treated in vivo (myograph); conditions: ANG II rats
Method: Additionally, in vivo attenuation of the effects of ANG II by Compound 2 or Compound 3 was examined. Rats were administered ANG II for 2 weeks and co-administered ANG II and either 10 mg of Compound 2 once a day by oral gavage or 30 mg of Compound 3 per day dose in drinking water for 2 weeks. Ach induced relaxation was measured by myograph.

arteries from SHR = experiment: Aortic relaxation of isolated arteries from spontaneously hypertensive rats (SHR) to Ach or SNP after pre-incubation (myograph); format: cell-based, rat; conditions: pre-incubation with 100 μM compound for 90 minutes
rat mesenteric arteries [4] = experiment: Direct vasorelaxation of rat mesenteric arteries with intact or denuded endothelium (wired myograph); format: cell-based
Method: The efficacy of the 1-(1-nicotinoylpiperidin-4-yl)-3-(4-(trifluoromethoxy)phenyl)urea (Compound 2) to directly effect vasorelaxation of rat mesenteric arteries was examined. Rat mesenteric arteries with intact and denuded endothelium were isolated under microscope. Both intact and denuded arteries were exposed to various concentrations of Compound 2 (2 μM, 10 μM, 50 μM, 100 μM, 500 μM or 1000 μM) and the amount of relaxation was measured by a wired myograph.

rat mesenteric arteries [5] = experiment: Vasorelaxation of rat mesenteric arteries pre-contracted with U46619 or high KCl (myograph); format: cell-based
Method: Additional experiments were performed wherein the pre-contraction of the mesenteric arteries was induced by pre-incubation with either 0.1-1.0 μM U46619 (9,11-dideoxy-9α,11α-methanoepoxy Prostaglandin F2α, […]). The pre-contracted arteries were exposed to 2 μM, 10 μM, 50 μM, 100 μM, 500 μM or 1000 μM of Compound 2 and the level of relaxation was measured by myograph. […] The amount of relaxation induced by Compound 2 was consistent between the vessels pre-contracted by U46619 and high KCl.

[6] = test system: rabbit corpus cavernosum smooth muscle strips; experiment: Relaxation of isolated rabbit corpus cavernosum smooth muscle strips (pressure transducer); format: cell-based; conditions: 10 minutes
Method: A study was performed using freshly isolated rabbit corpus cavernosum smooth muscle strips attached to a pressure transducer in a temperature controlled bath, to evaluate the efficacy of 1-adamantyl-3-(1-(methylsulfonyl)piperidin-4-yl)urea (Compound 1) for the treatment of erectile dysfunction.
The isolated rabbit corpus cavernosum strips were exposed to Compound 1 and/or 14,15-epoxyeicosatrienoic acid (14,15-EET) at 1 μM or 10 μM concentrations for 10 minutes. The relaxation of each strip was measured by pressure transduction. The percent relaxation was determined relative to a control strip incubated with sodium nitroprusside (SNP) of the formula Na2[Fe(CN)5NO].2H2O, SNP is a compound that serves as a source of nitric oxide, a potent peripheral vasodilator. All experimental conditions were done in duplicate.

## CCCCc1ccc(N=CN)c(C)c1 [N′-(4-dutyl-2-methyl-phenyl)-foramidine]
[1]
  phenylephrine (PE) induced contraction of the cavernosual strips: attenuated

## CC(=O)N1CCC(NC(=O)NC23CC4CC(CC(C4)C2)C3)CC1 [Compound 3, 1-adamantyl-3-(1-acetylpiperidin-4-yl)urea]
Rat arteries [2]
  percent relaxation with 100 nM Ach: 70%
Rat arteries [3]; 30 mg per day dose in drinking water for 2 weeks
  response to Ach-induced relaxation after in vivo co-administration: significantly improved dose dependent response to Ach
Arteries from SHR; vehicle 65%
  percent relaxation induced by 10 μM Ach: 90%
Arteries from SHR; vehicle 70%
  percent relaxation induced by 100 nM SNP: 95%

## O=C(Nc1ccc(OC(F)(F)F)cc1)NC1CCN(C(=O)c2cccnc2)CC1 [Compound 2, 1-(1-nicotinoylpiperidin-4-yl)-3-(4-(trifluoromethoxy)phenyl)urea]
Rat mesenteric arteries [4]; 10 μM of compound
  percent relaxation of mesenteric arteries: 5%
Rat mesenteric arteries [4]; 100 μM of compound
  percent relaxation of mesenteric arteries: 60%
Rat mesenteric arteries [5]; 2-1000 μM, pre-contracted by 0.1-1.0 μM U46619 or 127 mM KCl, consistent between both
  relaxation of pre-contracted mesenteric arteries: dose dependent effect
Rat arteries [2]
  percent relaxation with 100 nM Ach: 30%
Rat arteries [3]; 10 mg once a day by oral gavage for 2 weeks
  response to Ach-induced relaxation after in vivo co-administration: significantly improved dose dependent response to Ach

## epoxyeicosatrienoic acids [EETs]
[1]; normal, old and diabetic rat corpus cavernosual strips, read-out: apparent EC50 of relaxation
  EC50: 10 nM
[1]; normal, old and diabetic rat strips, depending on the system
  Emax of relaxation: 30-70%

## CCCCCCCCCCCCNC(=O)NC1CCCCC1 [1-cyclodexy-3-dodecyl-urea]
[1]
  phenylephrine (PE) induced contraction of the cavernosual strips: attenuated

## CS(=O)(=O)N1CCC(NC(=O)NC23CC4CC(CC(C4)C2)C3)CC1 [Compound 1, 1-adamantyl-3-(1-(methylsulfonyl)piperidin-4-yl)urea]
[6]; 1 μM of both Compound 1 and 14,15-EET, relative to SNP control strip
  percent relaxation of corpus cavernosum strip: 15%
[6]; 10 μM of both Compound 1 and 14,15-EET, relative to SNP control strip
  percent relaxation of corpus cavernosum strip: 22%
[6]; Compound 1 alone, 1 μM or 10 μM, relative to SNP control strip
  relaxation of corpus cavernosum strip: did not induce relaxation

## CCCCCC1OC1CC=CCC=CCC=CCCCC(=O)O (stereo not shown) [14,15-EET, 14,15-epoxyeicosatrienoic acid, reference compound]
[6]; 14,15-EET alone, 1 μM
  relaxation of corpus cavernosum strip: no effect
[6]; 14,15-EET alone, 10 μM, in one of the two experiments
  relaxation of corpus cavernosum strip: 7%
Rat mesenteric arteries [5]; pre-contracted with high KCl (100 mM per FIG. 3A)
  EET-induced vasorelaxation in vessels precontracted with high KCl: completely blocked
